In article PMC7529758, “Over-activation of a nonessential bacterial protease DegP as an antibiotic strategy” (Communications Biology, 2020):
Converted amounts (≈) assume the structure as drawn. *1 amine or outer side, *2 acyl side, *3 side chain or, on linkers, in order; H or OH if unused. Where a SMILES comes first, the peptide text is derived from it. Bridges are numbered along the chain shown (N, C = ends). Roman numbers before positions name the chains, in order. TBMB = c1c(C[*:1])cc(C[*:3])cc1C[*:2]

What was measured:
[1] = tested on: E.coli imp4213 strain; assay type: cell-based, Escherichia coli; settings: log-phase cells; 2x MIC; both 30 °C and 42 °C; CFU
Description: Time-kill experiment was performed by counting the viable bacteria at each time point. The E.coli imp4213 strain was cultured with streptomycin overnight and diluted 1:100 in fresh LB broth. When the OD600 value became 0.01, the activator was added at 2x MIC. The sample was incubated with shaking (180 rpm) at 30 °C or 42 °C, and aliquots were taken after 0, 1, 2, 4, 6, 8, 10, or 12 h. These aliquots were serially diluted (ten-fold) and plated on LB agar plates for colony counts. Experiments were performed in triplicates. The kill curves were plotted with the CFU/mL against time.
Experiments with cells in the stationary phase, however, were performed without dilution of the overnight culture.

[2] = biological target: T1, DegP^S210A (Escherichia coli, UniProt P0C0V0, C83S/C95S/N322C/S236A); assay: FRET assay of DegP cage assembly; assay type: biochemical; settings: FRET of donor- and acceptor-labeled DegP variants
T1 construct: pET22b-degP(full length; C57S/C69S/N296C/S210A)_6His; 6His (C); made in house; host or cells: E. coli (inferred from the pET plasmid)
Description: Fluorescence resonance energy transfer (FRET) assay was performed as previously described[14],[22]. Equimolar amounts of fluorescence donor- and acceptor-labeled DegP^S210A (total 0.1, 1 or 3 μM) was mixed in a buffer containing 50 mM sodium phosphate (pH 8) and 100 mM NaCl. Two-fold serial dilutions of activators were added to the DegP mixtures. Alexa Fluor 555 C2-maleinide and 647 C2-maleinide (life technologies) were used as fluorescence dyes. Cage assembly of DegP was monitored by increased FRET ratio using the micro-plate reader (excitation 520 nm, emission 570 or 670 nm, Infinite M200pro, Tecan). Assays were performed in triplicates.

[3] = tested on: E. coli imp4213; assay: microbe, parasite or virus in culture; assay type: cell-based, Escherichia coli; settings: imp4213, 12 h, LB
Description: (§1) The susceptibility of E. coli to activators was analyzed by determining the MICs. Two-fold serial dilutions of activators in LB broth were added to bacteria (OD600 = 0.1) in 96-well plates. Plates were incubated with shaking at 30 or 42 °C. After 12 h of incubation, the MIC was defined as the lowest concentration of the activator to inhibit the growth of bacteria by using a micro-plate reader (Absorbance 600 nm, Infinite M200pro, Tecan). The assay was performed in triplicates.

[4] = tested on: DegP^WT; assay: DegP activation assay with the reporter peptide; assay type: biochemical, Escherichia coli; settings: reporter 100 μM
Description: DegP activation experiments were performed as previously described[14],[22]. All the in vitro assays were performed in a buffer containing 50 mM sodium phosphate (pH 8) and 100 mM NaCl. Two-fold serial dilutions of the activator were incubated with DegP^WT (1, 3, or 10 μM) for 5 min. After incubation, the reporter peptide (Abz-[…]^NO2D; Abz, 2-aminobenzoic acid; Y^NO2, 3-nitrotyrosine; 100 μM final) was added. DegP activation was monitored by increased fluorescence by using a micro-plate reader (excitation 320 nm, emission 430 nm; Infinite F200pro, Tecan). Assays were performed in triplicates.

[5] = tested on: wild-type Escherichia coli (W3110); assay: Growth (OD600) of wild-type cells; assay type: cell-based; settings: LB; OD600 after 12 h; 42 °C
Description: as §1

[6] = biological target: T2, DegP^S210A (Escherichia coli, UniProt P0C0V0, S236A); assay: Fluorescence anisotropy binding assay
T2 construct: pET22b-degP(full length; S210A)_6His; 6His (C); made in house
Description: Fluorescence anisotropy assay was performed as previously described[14],[22]. Two-fold serial dilutions of activators were mixed with a fluorescence-labeled peptide (^flC18–58 or ^fl45–58, 50 nM; Oregon Green 488 maleimide, Invitrogen) and DegP^S210A (10 μM for ^flC18–58; 80 μM for ^fl45–58). Anisotropy was monitored by using a micro-plate reader (excitation 485 nm, emission 535 nm, Infinite F200pro, Tecan). The assay was performed in triplicates.

T2 sequence (P0C0V0 27-474 S236A): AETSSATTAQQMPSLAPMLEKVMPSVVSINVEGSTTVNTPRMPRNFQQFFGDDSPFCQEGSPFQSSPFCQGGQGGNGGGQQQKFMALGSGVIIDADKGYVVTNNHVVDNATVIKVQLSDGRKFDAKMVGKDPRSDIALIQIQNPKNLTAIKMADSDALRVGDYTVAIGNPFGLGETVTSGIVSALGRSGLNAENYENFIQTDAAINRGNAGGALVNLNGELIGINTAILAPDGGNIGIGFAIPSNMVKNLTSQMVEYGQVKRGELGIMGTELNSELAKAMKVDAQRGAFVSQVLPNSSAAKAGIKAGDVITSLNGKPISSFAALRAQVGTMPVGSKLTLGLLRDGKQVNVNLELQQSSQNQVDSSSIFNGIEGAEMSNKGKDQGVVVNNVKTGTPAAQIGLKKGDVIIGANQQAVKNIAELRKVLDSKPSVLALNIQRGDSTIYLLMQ
T1 sequence (P0C0V0 27-474 C83S/C95S/S236A/N322C): as the sequence (P0C0V0 27-474 S236A) above, with C57S, C69S, N296C counted along it

CC(C)C[C@H](NC(=O)[C@H](CCCCN)NC(=O)[C@H](CCCNC(=N)N)NC(=O)[C@H](Cc1ccc(O)cc1)NC(=O)[C@@H](N)CSCc1cc(CSC[C@H](N)C(=O)N[C@@H](Cc2ccc(O)cc2)C(=O)N[C@@H](CCCNC(=N)N)C(=O)N[C@@H](CCCCN)C(=O)N[C@@H](CC(C)C)C(=O)O)cc(CSC[C@H](N)C(=O)N[C@@H](Cc2ccc(O)cc2)C(=O)N[C@@H](CCCNC(=N)N)C(=O)N[C@@H](CCCCN)C(=O)N[C@@H](CC(C)C)C(=O)O)c1)C(=O)O [TMB_CYRKL] (I: H-CYRKL-OH / II: H-CYRKL-OH / III: H-CYRKL-OH; linker I:1-II:1-III:1 via TBMB)
reduction of the number of viable cells [1]: two orders of magnitude
assembly of DegP cages [2]: assemble DegP cages
MIC ([3]; 30 °C): 320 µM (≈ 691 µg/mL)
MIC ([3]; Fig. 3a and Supplementary Fig. 6b (30 °C and 42 °C)): 320 to 640 µM
increase of the cleavage rate compared with Lpp^+Leu and TMB_CKYRKL [4]: at least ten times more
activation of DegP (cleavage rate of the reporter peptide) ([4]; DegP 1 or 10 μM, increasing concentrations): activation was observed
growth of wild-type E. coli W3110 [5]: did not inhibit growth
concentrations that enhance binding of fl18-58 ([6]; DegPS210A 10 μM): 5~ 40 µM
concentrations that interrupt the interaction of fl18-58 ([6]; DegPS210A 10 μM): > 40 µM
concentrations that enhance binding of fl45-58 ([6]; DegPS210A 80 μM): 10~ 80 µM
concentrations that interrupt the interaction of fl45-58 ([6]; DegPS210A 80 μM): > 80 µM
